{"source": "patent US9290541B2", "about": "“TCL1 peptides for immunotherapy” (Board of Regents, The University of Texas System, priority 2011, dated 2016)", "key": {"[1]": {"system": "CD4+ and CD8+ T cells", "experiment": "Intracellular cytokine assay (IFN-γ) of peptide-stimulated T cell lines", "assay_type": "cell-based, human", "settings": "T cell lines from HLA-A2+ normal donors", "description": "FIGS. 3A-E: TCL1-specific cytotoxic T cells can be generated from normal donors. (FIG. 3A) PBMCs from HLA-A2^+ normal donors were stimulated with overlapping 15-mer peptides spanning the entire length of the TCL1 protein (see Table 2). T cells from each condition were washed and incubated with autologous CD3-depleted PBMC as antigen-presenting cells (APC) in the presence or absence of the corresponding peptide. After 18 hours, the production of IFN-γ was determined in the supernatants by ELISA. Asterisk indicates significant IFN-γ production compared with control (P<0.05). Representative data from one of three normal donors tested is shown. (FIG. 3B) T cell lines generated from HLA-A2^+ normal donors using TCL165-79 peptide were incubated with APC in the presence or absence of the TCL165-79 peptide or control HIV Gag77-85 peptide, and intracellular cytokine assay was performed. […] IFN-γ production was determined as in (FIG. 3A). […]\nFlow cytometry. […] After two washes, samples were acquired on a FACS Calibur (BD Biosciences) and analyzed using Cell Quest Pro (BD Biosciences) or FlowJo (Tree Star, Inc., Ashland, Oreg.) software. […] For tetramer staining, PE-conjugated TCL171-78 tetramer or HIV Gag77-85 tetramer and FITC-conjugated mouse anti-human CD8 antibody were mixed with the cells in 50 μl volume for 30 minutes at room temperature, washed twice, and analyzed by a flow cytometry."}, "[2]": {"biological_target": "T1, HLA-A2 (Homo sapiens, UniProt P04439, D140Y/D185E/D98H/E176V/E277Q/G131W/G231S/I119V/I121R/I166T/I218V/L300P/L318F/N151K/N90K/P208A/P217A/Q86G/Q94H/R138H/R169H/T345S)", "T1 construct": "endogenous in cells; host or cells: T2 hybridoma cells (TAP-deficient, HLA-A2+)", "experiment": "HLA-A2-binding assay (T2 binding index)", "settings": "T2 cells, 20 μg/ml peptide, 24 hours", "description": "FIGS. 4A-D: TCL171-78 is the minimal HLA-A*0201-binding peptide. (FIG. 4A) TCL165-79 peptide-specific T cells derived from HLA-A2^+ normal donors were incubated in the presence or absence of T2 cells and TCL165-79 derived truncated peptides (SEQ ID NOS:1-2; SEQ ID NOS:12-17; SEQ ID NOS:3-11; and SEQ ID NO:18) Flu matrix peptide (FMP58-66) and Gag77-85 peptide were used as controls. After 18 hours, the production of IFN-γ was determined in the supernatants by ELISA. (FIG. 4B) T2 cells were incubated with TCL165-79-derived truncated peptides (SEQ ID NOS:1-2; SEQ ID NOS:12-17; SEQ ID NOS:3-11; and SEQ ID NO:18), and the HLA-A2 binding affinity of each peptide was determined by flow cytometry. The T2 binding index was calculated as described in Materials and Methods. […] (FIG. 4D) TCL165-79 peptide-specific CD8^+ T cells or irrelevant T-cell line were stained with TCL171-78 or HIV Gag77-85 tetramers and analyzed by flow cytometry. […]\nTAP-deficient T2 cells were incubated with 20 μg/ml of peptides and 3 μg/ml of β2-microglobulin (Sigma-Aldrich, Cat # M4890) for 24 hours at 37° C. and 5% CO2 in air. The cells were then stained with anti-HLA-A2 PE antibody (BD Biosciences, Cat #560168), and the level of HLA-A2 expression was determined by flow cytometry. […]"}, "[3]": {"system": "TCL171-78 tetramer positive T cells", "experiment": "Peptide titration, avidity of TCL1-specific CTL (IFN-γ ELISA)", "assay_type": "cell-based, human", "settings": "T2 cells pulsed with various peptide concentrations; moderate avidity", "description": "FIG. 15. Avidity of TCL1-specific CTL. TCL171-78 tetramer positive T cells were isolated from a TCL1-specific T cell line by MACS using TCL171-78 tetramer PE and anti-PE microbeads. The isolated T cells were incubated with T2 cells pulsed with various concentrations of TCL165-79 peptide and IFN-γ production was determined in the supernatants by ELISA after 18 hours. […] Representative data from one of two experiments."}}, "data": [{"sequence": "TQIGPSLLPIMWQLY [TCL165-79]", "values": [{"measurement": "IFN-γ production by CD4+ and CD8+ T cells in response to peptide", "setting": "[1]", "result": "CD8^+ but not CD4^+ T cells produced IFN-γ"}, {"measurement": "binding to HLA-A2", "setting": "[2]", "result": "bound to TAP-deficient T2 cells"}, {"measurement": "lowest peptide concentration recognized by T cells", "setting": "[3]", "result": 1, "unit": "nM"}]}]}
